# Patent US11976083B2, “Inhibitors of peptidylarginine deiminases” (Gilead Sciences, Inc., priority 2020, dated 2024)
# Molecular target: T1, human PAD4 (Homo sapiens, UniProt Q9UM07)
# T1 construct: human PAD4 (NM_012387), A2-P663, was PCR amplified; His-SUMO (N, cleaved yes); made in house; host or cells: E. coli BL21(DE3)
# Experiment: In vitro PAD4 BAEE biochemical assay
# Conditions: BAEE substrate 3 mM, 5 nM PAD4, 2 mM calcium chloride; geometric mean of multiple experiments
# In short: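 Fluorescence read-out (ex 405/em 535 nm) of isoindole formed from ammonia, o-phthalaldehyde and DTT after EDTA stop. Reaction: 5 nM PAD4, 2 mM CaCl2, 3 mM BAEE, 2 h, 25 °C, after 30 min enzyme–compound preincubation. Normalised to BB-Cl-Amidine (50 µM) and DMSO controls.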
# T1 sequence (Q9UM07 2-663): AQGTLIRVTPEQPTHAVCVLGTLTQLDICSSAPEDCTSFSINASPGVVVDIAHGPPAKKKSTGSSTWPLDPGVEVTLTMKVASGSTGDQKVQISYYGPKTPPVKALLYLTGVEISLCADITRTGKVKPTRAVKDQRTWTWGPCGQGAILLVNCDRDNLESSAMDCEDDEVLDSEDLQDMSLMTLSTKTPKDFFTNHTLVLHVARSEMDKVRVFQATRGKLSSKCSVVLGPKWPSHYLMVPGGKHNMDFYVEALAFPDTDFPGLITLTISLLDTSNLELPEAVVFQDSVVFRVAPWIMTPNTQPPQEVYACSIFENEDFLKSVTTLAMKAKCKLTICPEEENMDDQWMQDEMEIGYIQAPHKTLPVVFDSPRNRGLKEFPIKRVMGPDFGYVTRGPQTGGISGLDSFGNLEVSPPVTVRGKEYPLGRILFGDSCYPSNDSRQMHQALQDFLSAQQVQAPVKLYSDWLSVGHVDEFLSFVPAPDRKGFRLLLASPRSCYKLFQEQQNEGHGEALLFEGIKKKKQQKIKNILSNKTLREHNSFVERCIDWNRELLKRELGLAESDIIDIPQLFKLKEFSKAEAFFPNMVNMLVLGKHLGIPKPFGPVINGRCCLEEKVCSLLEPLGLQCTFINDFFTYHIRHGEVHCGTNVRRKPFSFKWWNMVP
row,Compound,IC50
1,"COc1cc(C(=O)N[C@H]2CNCC[C@@H]2F)cc2nc(-c3cc4ccc5nc4n3CCCCCCC3(CC3)C(=O)N[C@@H]5C)n(C)c12 [Example 74, ~{N}-[(3~{S},4~{S})-4-fluoro-3-piperidyl]-7-methoxy-1-methyl-2-[(11~{R})-11-methyl-9-oxo-spiro[1,10,19-triazatricyclo[10.5.2.0^{15,18}]nonadeca-12(19),13,15(18),16-tetraene-8,1′-cyclopropane]-17-yl]benzimidazole-5-carboxamide]",221 nM
2,"COc1cc(C(=O)N2CCC[C@@H](N)C2)cc2nc(-c3cc4ccc5nc4n3CCCCOc3ccccc3C(=O)N[C@@H]5C)n(C)c12 [Example 30, (2~{R})-17-[5-[(3~{R})-3-aminopiperidine-1-carbonyl]-7-methoxy-1-methyl-benzimidazol-2-yl]-2-methyl-11-oxa-3,16,22-triazatetracyclo[14.5.2.0^{5,10).0^{19,23}] tricosa-1(22),5,7,9,17,19(23),20-heptaen-4-one]",1780 nM
3,"COc1cc(C(=O)N2C[C@H](N)C[C@@H](F)C2)cc2nc(-c3cc4ccc5nc4n3CCCCCCC(C)(C)C(=O)N[C@@H]5C)n(C)c12 [Example 193, (11~{R})-17-[5-[(3~{R},5~{R})-3-amino-5-fluoro-piperidine-1-carbonyl]-7-methoxy-1-methyl-benzimidazol-2-yl]-8,8,11-trimethyl-1,10,19-triazatricyclo[10.5.2.0^{15,18}]nonadeca-12(19),13,15(18),16-tetraen-9-one]",66 nM

# Results, then the molecule that gave them:
row,IC50,Compound
1,79 nM,"COc1cc(C(=O)N2CC[C@@H](OC)[C@@H](N)C2)cc2nc(-c3cc4ccc5nc4n3CCCc3cccc(c3)CC(=O)N[C@@H]5C)n(C)c12 [Example 866, (13˜{R})-19-[5-[(3˜{S},4˜{R})-3-amino-4-methoxy-piperidine-1-carbonyl]-7-methoxy-1-methyl-benzimidazol-2-yl]-13-methyl-1,12,21-triazatetracyclo[12.5.2.1^{5,9}.0^{17,20}]docosa-5,7,9(22),14(21),15,17(20),18-heptaen-11-one]"
2,4440 nM,"COc1cc(C(=O)N2CC[C@@H]3CCCN[C@@H]3C2)cc2nc(-c3cc4ccc5nc4n3CCCCCCC(C)(C)C(=O)N[C@@H]5C)n(C)c12 (single isomer, unassigned) [Example 262, (11˜{R})-17-[5-[(4˜{a}˜{S},8˜{a}˜{S})-2,3,4,4˜{a},5,6,8,8˜{a}-octahydro-1˜{H}-1,7-naphthyridine-7-carbonyl]-7-methoxy-1-methyl-benzimidazol-2-yl]-8,8,11-trimethyl-1,10,19-triazatricyclo[10.5.2.0^{15,18}]nonadeca-12(19),13,15(18),16-tetraen-9-one]"
3,122 nM,"C[C@H]1NC(=O)C(C)(C)CCCCCCn2c(-c3nc4cc(C(=O)N[C@H]5CNCC[C@@H]5F)c(F)cc4n3CC(F)F)cc3ccc1nc32 [Example 418, 1-(2,2-difluoroethyl)-6-fluoro-~{N}-[(3~{S},4~{S})-4-fluoro-3-piperidyl]-2-[(11~{R})-8,8,11-trimethyl-9-oxo-1,10,19-triazatricyclo[10.5.2.0^{15,18}]nonadeca-12(19),13,15(18),16-tetraen-17-yl]benzimidazole-5-carboxamide]"
4,640 nM,"COc1cc(C(=O)N2CC[C@@H](OC)[C@@H](N)C2)cc2nc(-c3cc4ccc5nc4n3CCCCCCC[C@@H](C(F)(F)F)N[C@@H]5C)n(C)c12 [Example 699, [(3~{S},4~{R})-3-amino-4-methoxy-1-piperidyl]-[7-methoxy-1-methyl-2-[(9~{S},11~ {R})-11-methyl-9-(trifluoromethyl)-1,10,19-triazatricyclo[10.5.2.0^ {15,18}]nonadeca-12(19),13,15(18),16-tetraen-17-yl]benzimidazol-5-yl] methanone]"
